“And” between values parts separate entries of the source, which are not always exact repeats. Equal entries are not always repeated.
Assays:
[1] = molecular target: T1, PD-L1 (Homo sapiens, UniProt Q9NZQ7); test: Real-time radioligand binding (LigandTracer) on PC3 PD-L1 cells; settings: for Kd: real-time binding
T1 construct: expressed in transfected cells; host or cells: PC3 cells (human prostate carcinoma), stably transduced
Protocol: Real-time radioligand binding using the ligand tracer platform was performed, similar to our previously reported tracer candidates. As we aimed at reducing the albumin binding of the herein presented compounds, we performed measurements in the presence or absence of a mouse physiological concentration of BSA (2.5 g/dL).
For real-time binding to assess kinetics (association rate constant ka and dissociation rate constant kd) and dissociation constant (KD), LigandTracer (Yellow, Ridgeview Instruments AB, Sweden) was employed. Approximately 1.2 × 10^6 cells (in 3 mL medium) were seeded to one side of a Petri dish (Nunc) 1 day prior to experiments as described before.[45] Binding was then performed at room temperature (using CO2-independent medium, Gibco #18045088, Thermo Fisher Germany) with or without BSA (2.5%). First, association was determined by incubation with two concentrations (10 and 40 nM, 90 min each) of the ^64Cu-labeled PD-L1 ligands. Dissociation was then assessed by replacement with fresh medium for at least 2 h. Data were acquired in decay-corrected counts per second (CPS), and binding data were then evaluated using TraceDrawer (1.9.2, Ridgeview Instruments AB, Sweden). Traces were inspected for spikes and irregularities and then normalized to their own baseline (=0%) and highest value (=100%). Data were then fitted using a one-to-one interaction, accounting for the bulk effect.

[2] = Proteolytic stability in human serum, radio-HPLC; type: in vitro ADME; settings: 37 °C
Protocol: Potential degradation of the ^64Cu-labeled radiotracers by proteolysis was investigated by incubation in human serum at 37 °C for up to 48 h. At three different time points (1, 24, and 48 h), a sample was withdrawn, and serum proteins were precipitated. The radio-HPLC chromatograms of all ^64Cu-labeled radiotracers (Figure S111A–D, system D) show a major peak at ∼6.4–6.7 min indicating the radiotracers. After 1 h, the radiotracers [^64Cu]Cu-3–6 are 94.1, 98.3, 94.0, and 96.3% intact, respectively.
Similar to PBS stability studies, the mixture containing the radiolabeled compound was diluted 1:10 with human serum. The solution was incubated at 37 °C with shaking at 300 rpm. At each time point (1, 24, and 48 h), an aliquot was withdrawn and added to a double amount of “supersol” (water containing 20% v/v EtOH, 5% v/v 5 mM aqueous EDTA, 0.5% v/v Triton X-100, 0.1% m/v saponin, 0.05% v/v 0.5 mM aqueous o-phenanthroline) to precipitate serum proteins. The suspension was cooled on ice for 5 min and then centrifugated for 5 min at 12,000g. A small amount of the supernatant was analyzed by radio-HPLC (PerkinElmer, Massachusetts, United States system D, Supporting Information). Evaluation and graphical plotting were performed with OriginPro 9.0.

[3] = tested on: PC3 mock tumor; test: Small-animal PET, uptake in mock tumor; settings: for SUVmax PC3 mock tumor: tracer only; for SUVmax PC3 mock tumor +block: blocker i.v. before tracer: Cu-1 100 nmol 1, Cu-2 100 nmol 2, Cu-3 1000 nmol 4, Cu-4 500 nmol 4, Cu-6 250 nmol 1 (~5 min prior), Cu-5 100 nmol 5 (~30 min prior)
Protocol: (§1) Changes are reported as % change of the SUVmax of the PD-L1 expressing over the respective value of the mock tumor. Similarly, the effect of blocking is reported as % change of the SUVmax of the animal injected with cold compound over that of the animal that received tracer only.
(§2) Animal experiments were performed in accordance with the guidelines of the German Regulations for Animal Welfare, approved by the Saxonian Ethical Committee for Animal Experiments (reference number DD24.1-5131/449/49). Male athymic NMRI-nude mice (Rj: NMRI-Foxn1^nu/nu, Janvier Laboratories, Le Genest-Saint-Isle, France) between 8 and 22 weeks of age were used. Under general anesthesia, [∼10% desflurane (Baxter, Deerfield, IL, USA) in 30 vol % oxygen + air] and warming, the animals were subcutaneously injected with 3–5 × 10^6 PC3-PD-L1 and PC3-mock cells [in 50 μL PBS +50 μL Matrigel (Corning, Glendale, USA)] into the right and left thigh, respectively. Tumor growth was monitored three times a week by caliper measurements, and mice with tumor sizes above 7 mm were included in the experiments.
(§3) For PET studies, general anesthesia was induced as described above. PET and X-ray computed tomography (CT) were performed in a dedicated small animal nanoScan PET/CT scanner, with four animals imaged simultaneously (Mediso, Budapest, Hungary). CT images were employed for attenuation correction and anatomical referencing. Animals received three individual scans corresponding to 0–2 h (dynamic) and 4.5 and 24 h (static) postinjection.
(§4) PD-L1 radiotracer candidates (in 300 μL sterile 0.9% NaCl/HEPES buffer, pH 6–7, between 7 and 12 MBq, molar activities > 12 GBq/μmol) were delivered over 30 s i.v. (lateral tail vein) and PET acquisition started simultaneously. For blocking condition, a defined quantity of compound (the same unlabeled compound, one from the same series or BMS-1166) was diluted in sterile saline and injected i.v. approximately 5 min prior to the radiotracer. Animals not subjected to blocking were injected with vehicle at the same time.
(§5) Three-dimensional list mode data were binned using the 400–600 keV energy window and sorted into 36 time frames (15 × 10 s, 5 × 30 s, 5 × 60 s, 4 × 300 s, 3 × 600 s, 4 × 900 s). Time frames were reconstructed using the Tera-TomoTM 3D algorithm applying a voxel size of 0.4 mm and corrections for decay, scatter, and attenuation.
(§6) Three-dimensional volumes of interest were delineated applying fixed thresholding at 35% of the measured maximum intensity. Standardized uptake values (SUV = [MBq detected activity/mL tissue]/[MBq injected activity/g body weight], […]) were determined in selected volumes of interest, among these PD-L1 and mock tumors.
(§7) 14. In vivo: PET- SUV data
(§8) Standardized uptake values (SUVmax)
(§9) Supplementary table 1: In vivo standardized uptake values (SUVmax ± standard deviation) of 64Cu-labeled third series compounds [64Cu]Cu-1-6 at 1.5 (1–2), 4.5 (4–5) and 24.5 (24–25) hours
(§10) post injection (p.i.). Compounds used for blocking are described for each tracer and were intravenously injected in sterile saline at stated time before the radiotracer. Animals designated for
(§11) tracer-only received matched type and volume of vehicle at the same time.

[4] = tested on: PC3 PD-L1-overexpressing tumor; test: Small-animal PET, uptake in PD-L1-overexpressing tumor; settings: for blocking effect: % change of SUVmax in PD-L1 tumor vs tracer-only: blocker: Cu-3 1000 nmol 4, Cu-4 500/1000 nmol 4, Cu-5 100 nmol 5, Cu-6 250 nmol BMS-1166; for SUVmax PC3 PD-L1 overexpressing tumor: tracer only; for SUVmax PC3 PD-L1 overexpressing tumor +block: blocker i.v. before tracer: Cu-1 100 nmol 1, Cu-2 100 nmol 2, Cu-3 1000 nmol 4, Cu-4 500 nmol 4, Cu-6 250 nmol 1 (~5 min prior), Cu-5 100 nmol 5 (~30 min prior)
Protocol: as §1, §2, §3, §4, §5, §6, §7, §8, §9, §10, §11

[5] = Radiotracer production data: stability of the product to in vivo experiments; type: physicochemical
[6] = medium only (no BSA), n = 2, mean ± S.D.

T1 sequence (Q9NZQ7 19-290): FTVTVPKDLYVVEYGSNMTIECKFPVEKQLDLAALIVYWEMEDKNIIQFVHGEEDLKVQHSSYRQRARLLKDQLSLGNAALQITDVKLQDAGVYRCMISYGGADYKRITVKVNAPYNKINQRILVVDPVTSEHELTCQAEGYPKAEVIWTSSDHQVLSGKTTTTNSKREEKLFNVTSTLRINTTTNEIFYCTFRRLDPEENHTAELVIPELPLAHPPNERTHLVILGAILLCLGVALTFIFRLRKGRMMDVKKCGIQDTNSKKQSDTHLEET

Cc1c(COc2cc(OCc3cncc(S(C)(=O)=O)c3)c(CN[C@@H](CS(=O)(=O)O)C(=O)NCCP(=O)(O)O)cc2Cl)cccc1-c1cccc(OCc2cn(CCCN3CCN(C(=O)[C@H](CP(=O)(O)O)NC(=O)CC[C@H](C(=O)O)N4CCN(CC(=O)O)CCN(CC(=O)O)CC4)CC3)nn2)c1C.[64Cu+2] [[^64Cu]Cu-6]
fold change of real-time binding affinity in presence vs absence of BSA ([1]; in either direction): ≤ 2 fold
Bmax [normalized (%)] ([1]; medium + 2.5% BSA, n = 1): 65.3%
ka (association rate constant) ([1]; medium + 2.5% BSA, n = 1): 3590 M/s
Bmax [normalized (%)] [1, 6]: 107 ± 7.16%
ka (association rate constant) ([1]; medium only (no BSA), n = 2, mean ± S.D., room temperature): (5.30 ± 0.52) × 10^3 (M s)^−1
Kd ([1]; medium + 2.5% BSA, n = 1): 41.4 nM
Kd [1, 6]: 22 nM and 22.2 nM
intact radiotracer in human serum after 1 h ([2]; 1 h): 96.3%
intact radiotracer in human serum at 48 h ([2]; 48 h): 93.4%
SUVmax PC3 mock tumor ([3]; 1.5 (1–2) hours p.i.): 0.83 ± 0.08
SUVmax PC3 mock tumor +block ([3]; 1.5 (1–2) hours p.i.): 1.04 ± 0.15
SUVmax PC3 mock tumor ([3]; 4.5 (4–5) hours p.i.): 1.35 ± 0.15
SUVmax PC3 mock tumor +block ([3]; 4.5 (4–5) hours p.i.): 1.7 ± 0.1
SUVmax PC3 mock tumor ([3]; 24.5 (24–25) hours p.i.): 2.2 ± 0.2
SUVmax PC3 mock tumor +block ([3]; 24.5 (24–25) hours p.i.): 3.05 ± 0.35
blocking effect: % change of SUVmax in PD-L1 tumor vs tracer-only ([4]; 1–2 h (1.5 h) p.i.): +25%
% change of SUVmax of the PD-L1 expressing tumor over the mock tumor ([4]; 1–2 h p.i.): 121%
SUVmax PC3 PD-L1 overexpressing tumor ([4]; 1.5 (1–2) hours p.i.): 1.83 ± 0.37
SUVmax PC3 PD-L1 overexpressing tumor +block ([4]; 1.5 (1–2) hours p.i.): 2.28 ± 0.46
blocking effect: % change of SUVmax in PD-L1 tumor vs tracer-only ([4]; 4–5 h (4.5 h) p.i.): +16%
SUVmax PC3 PD-L1 overexpressing tumor ([4]; 4.5 (4–5) hours p.i.): 1.55 ± 0.05
SUVmax PC3 PD-L1 overexpressing tumor +block ([4]; 4.5 (4–5) hours p.i.): 1.8 ± 0.3
SUVmax PC3 PD-L1 overexpressing tumor ([4]; 24.5 (24–25) hours p.i.): 2.2 ± 0.1
SUVmax PC3 PD-L1 overexpressing tumor +block ([4]; 24.5 (24–25) hours p.i.): 2.3 ± 0.4
blocking effect of BMS-1166 on SUVmax / tumor uptake ([4]; any time point, Cu-3: 750 nmol BMS-1166 intraperitoneally 60 min prior, Cu-6: 250 nmol BMS-1166 5 min before): no blocking effect
Stability of the product to in vivo experiments [5]: > 99%

Source: paper PMC10726354, “Design, Synthesis, and Biological Evaluation of Small-Molecule-Based Radioligands with Improved Pharmacokinetic Properties for Imaging of Programmed Death Ligand 1” (Journal of Medicinal Chemistry, 2023)
